Literature values as cited in patent US20020150627A1, “Composition containing creatine and phosphorus” (priority 2001, published 2002).
Read-outs that look alike come from different tables or passages of the source.

Key:
[1] = tested on: subjects; settings: for Increase power output compared to placebo according to Wallace et al: four times daily for 5 days
[2] = tested on: skeletal muscle; settings: 4×5 gram creatine per day for five to six days
[3] = 1000 mg four times daily for 5 days

SMILES	VO2 max elevated [1, 3]	Ventilatory anaerobic threshold elevated [1, 3]	Increase power output compared to placebo according to Wallace et al [1]	Increase power output compared to placebo according to Wallace et al ([1]; listed as phosphate)	Increase power output compared to placebo according to Wallace et al ([1]; listed as Creatine, monohydrate)	Increase power output compared to placebo according to Wallace et al ([1]; listed as creatine, monohydrate)	Increase of skeletal muscle creatine content (average) [2]	Phosphocreatine share of the increase in skeletal muscle creatine content [2]
O=P([O-])([O-])[O-].[Na+].[Na+].[Na+] [Phosphate, tribasic sodium phosphate]	8%	10%	3%	3%	–	–	–	–
CN(CC(=O)O)C(=N)N.O [creatine monohydrate]	–	–	–	–	3%	3%	20%	20%
